Key:
Format in all cases: functional, cell-based
[1] = target: T1, ATP-dependent translocase ABCB1 (Homo sapiens, UniProt P08183); assay: TP_TRANSPORTER: drug resistance (doxorubicin) in MCF-7/ADR cells; settings: nci/adr-res
[2] = target: T1, ATP-dependent translocase ABCB1; assay: TP_TRANSPORTER: drug resistance (doxorubicin) in K562/A02 cells
[3] = target: T1, ATP-dependent translocase ABCB1; assay: TP_TRANSPORTER: increase in Rhodamine 123 intracellular accumulation in K562/A02 cells

T1 sequence (P08183 whole entry): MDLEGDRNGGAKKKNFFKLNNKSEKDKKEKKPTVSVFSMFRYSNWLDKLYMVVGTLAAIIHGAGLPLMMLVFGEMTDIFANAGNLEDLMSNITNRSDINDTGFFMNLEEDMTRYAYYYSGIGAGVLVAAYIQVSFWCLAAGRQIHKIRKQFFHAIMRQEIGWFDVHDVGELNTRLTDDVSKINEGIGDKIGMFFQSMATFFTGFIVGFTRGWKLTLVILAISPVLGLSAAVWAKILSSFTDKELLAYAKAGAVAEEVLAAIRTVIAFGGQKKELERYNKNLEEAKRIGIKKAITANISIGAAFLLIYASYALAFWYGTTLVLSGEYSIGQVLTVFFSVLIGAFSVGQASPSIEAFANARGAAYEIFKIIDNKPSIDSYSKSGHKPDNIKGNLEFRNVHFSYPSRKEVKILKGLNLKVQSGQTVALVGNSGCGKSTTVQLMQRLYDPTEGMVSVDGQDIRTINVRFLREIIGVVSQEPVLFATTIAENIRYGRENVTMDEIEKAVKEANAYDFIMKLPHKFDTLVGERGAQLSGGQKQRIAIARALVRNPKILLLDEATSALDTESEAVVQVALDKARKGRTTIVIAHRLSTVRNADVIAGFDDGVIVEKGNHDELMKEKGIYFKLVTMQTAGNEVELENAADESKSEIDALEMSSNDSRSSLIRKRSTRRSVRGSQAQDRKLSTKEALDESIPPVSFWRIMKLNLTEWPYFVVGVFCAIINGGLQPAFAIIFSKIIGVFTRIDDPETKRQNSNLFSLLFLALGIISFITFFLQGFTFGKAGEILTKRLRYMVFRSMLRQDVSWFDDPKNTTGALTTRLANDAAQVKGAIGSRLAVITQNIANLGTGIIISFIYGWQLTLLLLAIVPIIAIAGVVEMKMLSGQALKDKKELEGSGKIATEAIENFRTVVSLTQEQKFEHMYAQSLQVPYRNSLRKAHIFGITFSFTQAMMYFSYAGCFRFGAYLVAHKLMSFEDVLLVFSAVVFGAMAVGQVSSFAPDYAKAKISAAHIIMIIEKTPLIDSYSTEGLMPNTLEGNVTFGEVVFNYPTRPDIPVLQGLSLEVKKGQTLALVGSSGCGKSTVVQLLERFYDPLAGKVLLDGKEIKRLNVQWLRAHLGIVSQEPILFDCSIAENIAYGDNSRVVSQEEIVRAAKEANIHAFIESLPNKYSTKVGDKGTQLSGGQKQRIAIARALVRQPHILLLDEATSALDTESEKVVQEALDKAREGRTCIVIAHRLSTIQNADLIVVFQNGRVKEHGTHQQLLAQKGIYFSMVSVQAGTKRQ

Activity [1]: inhibitor [+] | Activity [2]: inhibitor [+] | Activity [3]: inhibitor [+]
Structure (SMILES): COc1ccc2nc3cc(Cl)ccc3c(Nc3cc(CN4CCCC4)c(O)c(CN4CCCC4)c3)c2n1 [PYRONARIDINE]

— ChEMBL document CHEMBL2074380, “Pyronaridine, a novel modulator of P-glycoprotein-mediated multidrug resistance in tumor cells in vitro and in vivo” (Biochem Biophys Res Commun, 2004)
